The record followed here is ChEMBL document CHEMBL4406883, “Synthesis and structure-activity relationships of novel camphecene analogues as anti-influenza agents” (Bioorg Med Chem Lett, 2019).

pIC50: −log10 of the molar value. Activity calls are given as the source filed them. The rule behind the calls is not given here.

One series in a line: in vitro. Particulars: dog, MDCK cells.
For series [1], the system named is Influenza A virus (A/Puerto Rico/8/1934(H1N1)). The series is classed as functional, organism-based, pdm09. The settings on record: for pIC50: Influenza A virus, pdm09, MDCK, read-out: IC50.
Series [2] in a line: Cytotoxicity against dog MDCK cells assessed as cell death incubated for 48 hrs by MTT assay. The series is classed as cell-based, Canis lupus familiaris. The settings on record: read-out: CTD50. On the technique in general: Tetrazolium assays rely on reduction of a dye to a coloured formazan, in cell work by metabolically active cells.
Series [3] deals with Influenza A virus (A/Puerto Rico/8/1934(H1N1)). The series is classed as functional, organism-based. The settings on record: pdm09, 300 umol/l.
Series [4] shares this test system. The series is classed as functional, organism-based. Particulars: pdm09, 300 umol/l. This is another data set of the same source.

Description for in vitro: Selectivity index, ratio of CTD50 for dog MDCK cells to IC50 for Influenza A virus (A/Puerto Rico/8/34 (H1N1)) pdm09 infected in MDCK cells

Consider `CC(N)C12CC3CC(CC(C3)C1)C2` (stereo unspecified) [RIMANTADINE], for which the selectivity ratio in the series “in vitro” amounted to 5. In addition, the negative-log IC50 (pIC50) in series [1] is 4.17.

For the molecule `CC1(C)[C@@H]2CC[C@@]1(C)/C(=N/CCSc1ncccn1)C2`, the selectivity ratio in “in vitro” is 183. The CC50 at 48 h in series [2] was > 1020 µM. The pIC50 in series [1] is 5.22. The inhibition result in series [3] was “inactive”. Also, the inhibition result in series [4] is “Active”.

For `CN1CCN(CC/N=C2\C[C@H]3CC[C@]2(C)C3(C)C)CC1`, the selectivity ratio in “in vitro” was 24. The CC50 at 48 h in series [2] is 1080 µM. Moreover, the pIC50 in series [1] is 4.35.

As for `CC1(C)[C@@H]2CC[C@@]1(C)/C(=N/CCSc1ccccn1)C2`, the selectivity ratio in “in vitro” was 91. Further, the CC50 at 48 h in series [2] came to 503 µM. For the same molecule, the pIC50 in series [1] is 5.22.

`CC1(C)[C@@H]2CC[C@@]1(C)/C(=N/CCN1CCCC1)C2`: the selectivity ratio in “in vitro” worked out at 106. The CC50 at 48 h in series [2] is > 1260 µM. The negative-log IC50 (pIC50) in series [1] was 4.92.

As to `CC1(C)[C@@H]2CC[C@@]1(C)/C(=N/CCN1CCC(O)CC1)C2`, the selectivity ratio in the series “in vitro” was found to be 1. For the same molecule, the CC50 at 48 h in series [2] was > 1030 µM. Also, the IC50 entry in series [1] is reported as “Not Active”.

With `CC1(C)[C@@H]2CC[C@@]1(C)/C(=N/CCN1CCCCC1)C2`, the selectivity ratio in the series “in vitro” stood at 43. Also, in series [2], the CC50 at 48 h was > 1140 µM. Moreover, the pIC50 in series [1] is 4.57.

For the molecule `CC1(C)[C@@H]2CC[C@@]1(C)/C(=N/CCSc1nc3ccccc3[nH]1)C2`, in “in vitro”, the selectivity ratio was 20. Moreover, in series [2], the CC50 at 48 h was 406 µM. In addition, the pIC50 in series [1] was 4.68.

Regarding `CC1(C)[C@@H]2CC[C@@]1(C)/C(=N/CCSc1nnc[nH]1)C2`, the selectivity ratio in “in vitro” was 8. Besides, the CC50 at 48 h in series [2] was 197 µM. In addition, in series [1], the pIC50 is 4.62.

As for `CCN1CCN(CC/N=C2\C[C@H]3CC[C@]2(C)C3(C)C)CC1`, in “in vitro”, the selectivity ratio was 2. For the same molecule, in series [2], the CC50 at 48 h stood at 222 µM. Also, the pIC50 in series [1] is 4.00.

On to `CC1(C)[C@@H]2CC[C@@]1(C)/C(=N/CCSC1=NCCS1)C2`, for which the selectivity ratio in the series “in vitro” was determined as 23. Moreover, the CC50 at 48 h in series [2] stood at 753 µM. Moreover, the pIC50 in series [1] is 4.48.

For `CC1(C)[C@@H]2CC[C@@]1(C)/C(=N/CCO)C2`, the selectivity ratio in the series “in vitro” was 500. Besides, in series [1], the negative-log IC50 (pIC50) was 2.30.

Turning to `CC1(C)[C@@H]2CC[C@@]1(C)/C(=N/CCSc1ccc(Cl)cc1)C2`, in the series “in vitro”, the selectivity ratio was 4. For the same molecule, in series [2], the CC50 at 48 h stood at 170 µM. Also, the pIC50 in series [1] is 4.33.

Take `CC1(C)[C@@H]2CC[C@@]1(C)/C(=N/CCSc1nc3ccccc3s1)C2`: in the series “in vitro”, the selectivity ratio was found to be 20. In addition, in series [2], the CC50 at 48 h is 383 µM. Further, in series [1], the pIC50 is 4.72.

Take `Cn1ccnc1SCC/N=C1\C[C@H]2CC[C@]1(C)C2(C)C`: in the series “in vitro”, the selectivity ratio amounted to 3. In addition, in series [2], the CC50 at 48 h is 1130 µM. The pIC50 in series [1] is 3.47.

Regarding `CC1(C)[C@@H]2CC[C@@]1(C)/C(=N/CCN1CCNCC1)C2`, the selectivity ratio in the series “in vitro” turned out to be 33. Further, in series [2], the CC50 at 48 h was 1200 µM. Further, the pIC50 in series [1] was 4.43.

Turning to `CC1CCN(CC/N=C2\C[C@H]3CC[C@]2(C)C3(C)C)CC1`, the selectivity ratio in the series “in vitro” was 12. Also, the CC50 at 48 h in series [2] turned out to be 294 µM. The pIC50 in series [1] was 4.60.

As to `NC(=O)c1ncn([C@@H]2O[C@H](CO)[C@@H](O)[C@H]2O)n1` [RIBAVIRIN], in the series “in vitro”, the selectivity ratio is > 81. Further, the CC50 at 48 h in series [2] is > 2000 µM. For the same molecule, the pIC50 in series [1] is 4.60.

As to `NC12CC3CC(CC(C3)C1)C2` [AMANTADINE], in “in vitro”, the selectivity ratio was 4. In series [1], the pIC50 is 4.19.

The pIC50 is the IC50 on a negative log10 scale, so that one unit is a factor of ten.
